The values that follow come from US20220403327A1, “CUSTOMIZABLE 3D CELL CULTURE SYSTEM COMPRISING HYDROGEL-EMBEDDED CELLS AND USES THEREOF” (POLYVALOR, LIMITED PARTNERSHIP, priority 2019, published 2022).

Structures are written as SMILES.

Common to all, as to assay type: cell-based
One experiment concerns breast cancer cells. The experiment in a line: Drug screening test: tumor migration on plasma-treated PLA electrospun mat 3D cell culture model. The note with it: 0, 0.05, 0.1, 0.5, 1 and 2 μM in media; day 7 of cell culture; A1G7 hydrogel on fibroblast-seeded PLA mats; triplicate. The protocol:
FIG. 11B is a graph showing the measurement of the number of tumor cells migrated to the surface of PLA mats at different concentrations (0, 0.05, 0.1, 0.5, 1 or 2 μM) of Doxorubicin. Experiments were performed in triplicate and the error bars in the graph show the standard deviation.
A drug screening setup was designed using the known anti-tumor drug Doxorubicin to assess tumor migration performance on the 3D cell culture model of the present disclosure. The plasma-treated PLA electrospun mats seeded with fibroblasts and tumor cells on A1G7 hydrogel on top, were loaded with various concentrations of Doxorubicin (0, 0.05, 0.1, 0.5, 1 and 2 μM) in triplicate, and tumor migration assessment was performed at day 7 of cell culture. […] The experiment was done in triplicate and the error bars presented in the chart are based on standard deviation.

The next experiment relates to fibroblasts. Description: Drug screening test: stromal cells on nanofibrous PLA scaffolds of the 3D cell culture model. The note with it: 0-2 μM; day 7; relative to samples from previous experiment without drug. The protocol: A drug screening setup was designed using the known anti-tumor drug Doxorubicin to assess tumor migration performance on the 3D cell culture model of the present disclosure. The plasma-treated PLA electrospun mats seeded with fibroblasts and tumor cells on […] hydrogel on top, were loaded with various concentrations of Doxorubicin (0, 0.05, 0.1, 0.5, 1 and 2 μM) in triplicate, and tumor migration assessment was performed at day 7 of cell culture. […] The experiment was done in triplicate and the error bars presented in the chart are based on standard deviation.

In experiment [1] the test system is bone metastases prostate (BMP4) patient-derived tumor cells. The experiment in a line: Drug screening test: tumor migration on PP-EL plasma-coated PLA electrospun mats with patient-derived tumor cells. The conditions noted are these: 0, 0.05, 0.1 and 0.5 μM, day 7 of cell culture, A1G7 hydrogel, triplicate. The protocol:
FIG. 12C is a graph showing the measurement of the number of BMP4 tumor cells migrated to the surface of PP-EL plasma-treated PLA mats at different concentrations (0, 0.05, 0.1, or 0.5 μM) of Doxorubicin. Experiments were performed in triplicate and the error bars in the graph show the standard deviation.
The 3D cell culture system according to the present disclosure was also used to perform a doxorubicin screening tested with tumor cells derived from patients (bone metastases prostate (BMP4) patient-derived tumor cells) and a breast tumor cell line (MBA-MB231) in A1G7 hydrogel. In this experiment, the PLA scaffolds were coated with PP-EL, ethyl lactate (EL) plasma coating in atmospheric pressure, and captured at day 7 after culture. The results depicted in FIG. 12A indicate a significant difference in the appearance of primary BMP4 tumor cells and commercial tumor cell line in the images. The pictures show the 3D stack of the total mat layers (certain thickness) obtained by signal from cells.
The PP-EL plasma-coated PLA electrospun mats seeded with BMP4 tumor cells on A1G7 hydrogel on top, were loaded with various concentrations of Doxorubicin (0, 0.05, 0.1 and 0.5 μM) in triplicate, and tumor migration assessment was performed at day 7 of cell culture.

Take `COc1cccc2c1C(=O)c1c(O)c3c(c(O)c1C2=O)C[C@@](O)(C(=O)CO)C[C@@H]3O[C@H]1C[C@H](N)[C@H](O)[C@H](C)O1` [Doxorubicin]: the “number of breast cancer cells that were able to migrate to the surface of scaffolds” value with breast cancer cells is recorded as “significant reduction”. Also, the “number of stromal cells (fibroblasts) on nanofibrous scaffolds” value in the experiment with fibroblasts is recorded as “reduced number of stromal cells”. In experiment [1], the “BMP4 tumor cells migration” value is reported as “dose-dependent inhibition”.
